Each block holds one compound with its values, some of them ahead of it.
How the values were obtained:
RAW 264.7 cells [1] = experiment: Whole cell inhibition assay for arginine uptake; format: cell-based, murine; conditions: γIFN+LPS, 8 hours
Procedure: In the embodiment described in the working example herein, a test population of cells was cultured for about 3 hours so that the cells became firmly adherent. Various concentrations of the potential inhibitors were then added to parallel cultures. One hour later the macrophage stimulators, e.g. including, but not limited to LPS and γIFN, were added. Eighteen hours later the cells were washed in a warm balanced salt solution supplemented with glucose. Carrier-free radiolabelled arginine was added; after 5 minutes, active uptake of arginine was stopped by washing the cell three times with buffer, chilled to 0° C., containing 10 mM unlabeled arginine to displace any externally bound label. The contents of the washed cells are solubilized in 100 μl of formic acid and counted by standard techniques.
RAW 264.7 cells are plated in standard 96-well microculture plates at a concentration of 10^5/well and allowed to adhere for from 2 hours to overnight. The medium is then replaced with medium containing the compound to be tested. One hour later, the medium is supplemented so as to contain 25 U/ml γIFN and 0.1 μg/ml LPS and the cultures incubated a further. The cells are then rinsed twice in HEPES- buffered Krebs salt solution with 0.1% glucose. Carrier-free tetra-^3H-arginine is added to each well (2.5 μCi/well with specific activity of […]) and the active uptake of arginine is allowed to continue for a 5 minute period after which the cells are rapidly cooled to 0° C. by lavage with iced saline containing 10 mM unlabeled arginine to displace any externally bound label. The contents of the washed cells are solubilized in 100 Al of formic acid and counted by standard techniques. In subsequent experiments to determine the acitivity of the inhibitors, incubations were performed for 8 hours.
(§1) This section describes experiments that measure the concentration of Compound No. 14 needed to inhibit arginine uptake and NO output. The techniques employed were described in section 7.1 supra.

[2] = Solubility on preparing test solutions; format: physicochemical; conditions: preparation of test solutions
Procedure: (§2) Various concentrations of the test compounds are included in the media of the stimulated RAW 264.7 cells in culture. The concentration of urea and/or nitrite after 18 hours of activated culture is determined and compared to the uninhibited control value obtained from at least one parallel culture. The fractional reduction is calculated for each concentration of inhibitor and the IC50 (concentration giving 50% reduction) is interpolated. Compounds were dissolved in media with mild heat (60° C.). Those with limited solubility were dissolved in base. The concentration of stock solutions of those compounds which were not completely soluble was determined by OD280.

RAW 264.7 cells [3] = experiment: Whole cell inhibition assay for NO (nitrite) output; format: cell-based, murine; conditions: γIFN+LPS, 18 hours
Procedure: (§3) RAW 264.7 cells are plated in microculture wells at 1×10^6/ml in RPMI 1640 with 10% FBS and otherwise standard culture conditions and allowed to adhere for 5 hours. They are then activated with 25 U/ml γIFN and 0.1 μg/ml LPS in the presence of test inhibitors. The urea concentration present in the supernatant media, after 18 hours of culture, is determined by a colorimetric blood urea nitrogen diacetylmonoxime assay performed on an aliquot of the culture supernatant (Sigma Chem. Co., St. Louis, Mo.) and inhibition is expressed as the percentage urea compared to that of a parallel control culture treated identically except that the concentration of added inhibitor is zero.
The production of nitrite is determined by assay of the same tissue culture supernatant by means of a calorimetric assay. Briefly, 4 parts of test solution containing 1% (w/v) sulfanilamide, 0.1% naphthylethylenediamine di-HCl (Griess Reagent), 2.5% H3PO4 and one part media are mixed, incubated for 10 minutes and the absorbance at 560 nm determined. The nitrite concentrations are interpolated from reference curves prepared using NaNO2.
as §2, §1

RAW 264.7 cells [4] = experiment: Whole cell inhibition assay for urea output; format: cell-based, murine; conditions: for IC50: Mus musculus, RAW264.7, interpolated, γIFN+LPS-activated RAW 264.7, 18 hours, read-out: I.C.50 (in parenthesis), inhibition of urea production; for urea % suppression of induced production: γIFN+LPS, 18 hours
Procedure: as §3, §2

TNF = TNF production by LPS/γIFN-stimulated RAW 264.7 cells; format: cell-based, murine; conditions: even at concentrations of 10 μM
Procedure: RAW 264.7 cells were plated in standard 6-well culture plates at a density of 10^6/well and allowed to adhere for from 2 hr to overnight. The medium was then replaced with medium containing the compound to be tested. One hour later, the medium was supplemented so as to contain 25 U/ml γIFN and 0.1 μg/ml LPS and the cultures incubated a further 18 hr. The medium was then collected, and cell debris removed by centrifugation. This conditioned supernatant was then assayed for the presence of TNF using standard methodologies: L929 cell cytotoxicity bioassay, radioimmunoassay or ELISA, and Western blotting with antibodies against murine TNF.

[5] = system: Endothelial Derived Relaxing Factor (EDRF) activity; experiment: Acetylcholine-induced hypotensive (EDRF) response; format: in vivo, rats; conditions: 10 mg/Kg single intra-arterial dose; blood pressure 30 sec after ACh
Procedure: Female Sprague-Dawley rats (225-250 g body weight) were anesthetized with nembutal (50 mg/Kg, i.p.), a tracheostomy tube was inserted, and the carotid artery and jugular vein cannulated by standard methods using polyethylene tubing (PE 50). Tracey, K. J., et al., 1986, SCIENCE 234, 470-474. Blood pressure was recorded continuously with a pressure transducer and recorder (Model RS-3200, Gould Inc.,). In the experiment shown here, animals received a single sterile intra-arterial dose of either N^G-methyl-L-arginine (NMA; Sigma; 10 mg/Kg), Compound No. 14 (50 mg/Kg), or vehicle (0.4 ml). Acetylcholine (ACh) diluted in LPS-free sterile water was administered via the jugular vein cannula at the doses indicated. The solutions were diluted to produce a constant injectable volume of 1 ml/Kg body weight.
The hypotensive (EDRF) response was measured as the decline in mean arterial blood pressure recorded 30 sec after administration of ACh. The number of animals studied at each dose of acetylcholine was 4-6 for each experimental condition; data are expressed as the mean +s.e.m.

[6] = dose 23.3 (dose unit not given)

melting point: 264 to 266 °C | Dissolved in (solubility) [2]: Not soluble; | IC50 (RAW 264.7 cells [4]): 1 to 10 µM
Structure (SMILES): Cl.Cl.N=C(N)NN=Cc1cccc(OCCOc2cccc(C=NNC(=N)N)c2)c1 [Compound 16, 3,3′-(ethylenedioxy)dibenzaldehyde bis(amidinohydrazone) dihydrochloride]
arginine transport % suppression of induced peak (RAW 264.7 cells [1]; dose 5 μM): 26% | arginine transport % suppression of induced peak (RAW 264.7 cells [1]; dose 25 μM): 44% | arginine transport % suppression of induced peak (RAW 264.7 cells [1]; dose 250 μM): 100% | no2/no3 % suppression of induced production (RAW 264.7 cells [3]; dose 5 μM): 17% | no2/no3 % suppression of induced production (RAW 264.7 cells [3]; dose 25 μM): 90% | no2/no3 % suppression of induced production (RAW 264.7 cells [3]; dose 250 μM): 100% | urea % suppression of induced production (RAW 264.7 cells [4]; dose 5 μM): 40% | urea % suppression of induced production (RAW 264.7 cells [4]; dose 25 μM): 100% | urea % suppression of induced production (RAW 264.7 cells [4]; dose 250 μM): 100%

melting point: 322 to 323 °C (dec.) | Dissolved in (solubility) [2]: Not soluble | IC50 (RAW 264.7 cells [4]): 150 µM
Structure (SMILES): COc1cc(C=NNC(=N)N)ccc1OCCOc1ccc(C=NNC(=N)N)cc1OC.Cl.Cl [Compound 17, 4,4′-(ethylenedioxy)di-m-anisaldehyde bis(amidinohydrazone) dihydrochloride]
no2/no3 % suppression of induced production (RAW 264.7 cells [3]; dose 177 μM): 71-87% | urea % suppression of induced production (RAW 264.7 cells [4]; dose 177 μM): 54-100%

melting point: 233 to 235 °C | Dissolved in (solubility) [2]: Not soluble | IC50 (RAW 264.7 cells [4]): 25 µM
Structure (SMILES): COc1ccc(C=NNC(=N)N)cc1OCCCOc1cc(C=NNC(=N)N)ccc1OC.Cl.Cl [Compound 18, 3,3′-(trimethylenedioxy)di-p-anisaldehyde bis(amidinohydrazone) dihydrochloride]
no2/no3 % suppression of induced production (RAW 264.7 cells [3]; dose 233 μM): 100% | no2/no3 % suppression of induced production (RAW 264.7 cells [3]; dose 7.7 (dose unit not given)): 0% | no2/no3 % suppression of induced production (RAW 264.7 cells [3]; [6]): 13% | urea % suppression of induced production (RAW 264.7 cells [4]; dose 233 μM): 100% | urea % suppression of induced production (RAW 264.7 cells [4]; dose 7.7 (dose unit not given)): 9% | urea % suppression of induced production (RAW 264.7 cells [4]; [6]): 30%

Structure (SMILES): CNC(=N)NCCC[C@H](N)C(=O)O [NMA, N^G-methyl-L-arginine, reference compound]
inhibition of the production of TNF (TNF): did not inhibit | acetylcholine-induced EDRF activity in vivo [5]: inhibited
